Data as given in patent US6060043A, “Deodorant composition containing D-amino acid” (The Gillette Company, priority 1998, dated 2000).
Values after ≈ are worked out from the molar mass of the structure shown.

What was measured:
[1] = test system: Staphylococcus haemolyticus; assay: Minimum inhibitory concentration (MIC) in axillary bacteria, Staphylococcus strain; format: cell-based
Procedure: (§1) In vitro experiments were conducted in order to determine the ability of several bacterial cell wall synthesis inhibitors to inhibit the growth of axillary bacteria. The minimum inhibitory concentrations (MIC) of β-chloro-D-alanine (BCA), and D-cycloserine were determined in Staphylococcus (Staphylococcus haemolyticus) and Coryneform strains of axillary bacteria as follows: Frozen stock cultures were thawed out and 50 μl of Staphylococcus haemolyticus or 100 μl of Coryneform bacteria were inoculated into 5.0 ml of nutrient media. Bacteria were incubated at 35° C. overnight to produce cultures in log phase growth. A series of tubes was set up into which serial dilutions of BCA or triclosan in nutrient media were added in the range of 0.1 to 0.0001 wt/v % (where 1 g/100 ml=1 wt/v %). The tubes were inoculated with 50 μl of log phase Staphylococcus haemolyticus or Coryneform cultures and incubated at 35° C. overnight. […] The minimum bactericidal concentration (MBC) was determined by adding 50 μl from each clear solution of the MIC experiment into 5.0 ml of fresh nutrient media and incubating overnight at 37° C. […] The MIC of BCA was thus determined to be 0.1 wt/v % and 0.001 wt/v % in Staphylococcus haemolyticus and Coryneforms, respectively. The MIC of D-cycloserine was thus determined to be 0.01 wt/v % and 0.005 wt/v % in Staphylococcus haemolyticus and Coryneforms, respectively. By comparison, the MIC of the common antibacterial deodorant compound triclosan is 0.01 wt/v % and 0.1 wt/v % in Staphylococcus haemolyticus and Coryneforms, respectively.

Coryneform bacteria = assay: Minimum inhibitory concentration (MIC) in axillary bacteria, Coryneform strain; format: cell-based, Coryneform strains of axillary bacteria
Procedure: as §1

axillary malodor [2] = assay: Example 6: axillary malodor evaluation by odor judges, 1.0% β-chloro-D-alanine vs 1.0% β-chloro-L-alanine; format: in vivo, human; set-up: key to 24 Hour Drop from Control / A-B (drop), D-BCA minus L-BCA: drop in odor score on 0 (no odor) to 10 (very intense) scale; conditions: for 24 Hour Drop from Control: 1.0% in 60% propylene glycol/40% water
Procedure: (§2) BCA was dissolved in a mixture of 60% propylene glycol and 40% water at a final concentration of 1.0%. The pH of the solution was adjusted to about 6.25 with 10 N NaOH. Thirty-nine female panelists applied 0.5 ml of this test solution to either the right or left axilla and 0.5 ml of a comparative solution of 60% propylene glycol and 40% water to the other. The side of application of the test or comparative solutions was assigned in a random fashion. Twenty-four hours after application, each side of the panelists' axilla was judged for odor by a panel of trained odor judges on a scale of 0 (no odor) to 10 (very intense, disagreeable odor). This procedure was performed on four consecutive days. […] Analysis of the clinical results is summarized below:
A test product containing 1.0% β-chloro-D-alanine (BCA)[…] in 60% propylene glycol/40% water was compared to a comparative product containing 1.0% β-chloro-L-alanine in 60% propylene glycol/40% water by application to 50 female test subjects according to the procedure of Example 4.

β-lyase = assay: Sniff vial test: malodor formation from precursors by whole Staphylococcus haemolyticus cells (beta-lyase inhibition); format: cell-based; conditions: 31-0.625 mM, phosphate buffer pH 6.8, 30 minutes at 35° C.; judged by smelling
Procedure: BCA was tested for its ability to prevent Staphylococcus haemolyticus from metabolizing sweat to form malodor. Log-phase cultures of Staphylococcus haemolyticus were incubated with various concentrations of BCA (31-0.625 mM) in phosphate buffer (pH 6.8) for 30 minutes at 35° C. The cell/BCA mixture was then added to a "sniff vial" containing malodor precursors and incubated at 35° C. for an additional 30 minutes. Malodor compounds were then extracted from the mixture with chloroform and malodor was judged by spotting 10 μl of chloroform extracts onto bibulous paper and smelling. […] In contrast, the β-lyase inhibitor aminooxyacetic acid (AOA) consistently prevents malodor in the above assay at concentrations of 5.0 mM.

[3] = In vivo test for axillary irritation of 1.0% BCA; set-up: species or system human; conditions: 1.0% in 60% propylene glycol/40% water, pH about 6.25, 1.0 ml, four consecutive days, seven panelists
Procedure: In vivo experiments were conducted to determine if 1.0% solutions of BCA were irritating to axillary skin. BCA was dissolved in a mixture of 60% propylene glycol and 40% water at a final concentration of 1.0%. The pH of the solution was adjusted to about 6.25 with 10 N NaOH. Seven panelists applied 1.0 ml of this test solution to a cotton applicator swab and applied the solution to either the right or left axilla. 1.0 ml of a control solution of 60% propylene glycol and 40% water was similarly applied to the other axilla. The side of application of the test or control solutions was assigned in a random fashion. This procedure was performed on four consecutive days. Axilla were monitored by a nurse for signs of skin irritation.

axillary malodor [4] = assay: Example 4: axillary malodor evaluation by trained odor judges, 1.0% BCA vs vehicle; format: in vivo, human; conditions: for 24 hours drop from untreated Control / Malodor Evaluation (score): 1.0% BCA; for Malodor Evaluation (score): 24 h after application, scale 0 to 10
Procedure: as §2
Significance was measured in a two-tailed T-test al 95% confidence level and n=number of subjects.

N[C@H](CCl)C(=O)O [BCA, β-chloro-D-alanine]
MIC [1]: 1000 µg/mL (≈ 8.09 mM)
MIC (Coryneform bacteria): 10 µg/mL (≈ 0.0809 mM)
A-B (drop), D-BCA minus L-BCA (axillary malodor [2]; composite): 0.436
24 Hour Drop from Control (axillary malodor [2]; composite): 1.519
Control of malodor, BCA test product versus 1.0% β-chloro-L-alanine comparative product (axillary malodor [2]; measurements 2-4 and composite, 95% level of confidence, not the first measurement): significantly more effective
A-B (drop), D-BCA minus L-BCA (axillary malodor [2]; post-application measurement 1): 0.166
24 Hour Drop from Control (axillary malodor [2]; post-application measurement 1): 1.079
A-B (drop), D-BCA minus L-BCA (axillary malodor [2]; post-application measurement 2): 0.452
24 Hour Drop from Control (axillary malodor [2]; post-application measurement 2): 1.492
A-B (drop), D-BCA minus L-BCA (axillary malodor [2]; post-application measurement 3): 0.665
24 Hour Drop from Control (axillary malodor [2]; post-application measurement 3): 1.678
A-B (drop), D-BCA minus L-BCA (axillary malodor [2]; post-application measurement 4): 0.529
24 Hour Drop from Control (axillary malodor [2]; post-application measurement 4): 1.862
Inhibition of malodor formed by staphylococcal metabolism of precursors (β-lyase): did not inhibit malodor
Axillary skin irritation [3]: No incidences of irritation were reported
Axillary skin irritation (axillary malodor [4]; 1.0% in 60% propylene glycol/40% water, 0.5 ml, four consecutive days, thirty-nine female panelists): No incidences of irritation were reported
Deodorant efficacy versus 60% propylene glycol/40% water comparative product (axillary malodor [4]; 95% confidence level, measurements 3, 4 and composite): significantly more effective
A-B (drop of comparative product minus drop of BCA product) (axillary malodor [4]; composite): -0.29
24 hours drop from untreated Control (axillary malodor [4]; composite): 0.96
Malodor Evaluation (score) (axillary malodor [4]; measurement 1): 4.18
Malodor Evaluation (score) (axillary malodor [4]; measurement 2): 3.6
Malodor Evaluation (score) (axillary malodor [4]; measurement 3): 3.3
Malodor Evaluation (score) (axillary malodor [4]; measurement 4): 3.49
A-B (drop of comparative product minus drop of BCA product) (axillary malodor [4]; post-application measurement 1): 0.11
24 hours drop from untreated Control (axillary malodor [4]; post-application measurement 1): 0.41
A-B (drop of comparative product minus drop of BCA product) (axillary malodor [4]; post-application measurement 2): -0.21
24 hours drop from untreated Control (axillary malodor [4]; post-application measurement 2): 0.99
A-B (drop of comparative product minus drop of BCA product) (axillary malodor [4]; post-application measurement 3): -0.50
24 hours drop from untreated Control (axillary malodor [4]; post-application measurement 3): 1.29
A-B (drop of comparative product minus drop of BCA product) (axillary malodor [4]; post-application measurement 4): -0.62
24 hours drop from untreated Control (axillary malodor [4]; post-application measurement 4): 1.10
